“Also recorded” adds a separate entry of the source. Where two headings read alike, the source gives them in different places.
How the values were obtained:
[1] = target: T1, Human Serum Albumin (HSA) (Homo sapiens, UniProt P02768); experiment: Fluorescence quenching of HSA by PFAS (Stern–Volmer, double logarithmic and Van't Hoff analysis); assay type: binding; conditions: for quenching of HSA fluorescence intensity: PFAS 1.8 × 10^−5 mol·L^−1, HSA 1 × 10^−6 mol·L^−1, 298 K; for ΔH / ΔS: Van't Hoff, 298–310 K; for HSA fluorescence peak position after PFAS addition (blue shift from 337 nm): as the concentration of PFAS increases; for affinity for HSA: fluorescence quenching experiments; for main interaction force from thermodynamic analysis: signs of ΔH and ΔS
T1 construct: HSA (≥96%) and six PFAS were all purchased from Aladdin Chemicals (Shanghai, China); purchased Aladdin Chemicals (Shanghai, China)
Procedure: Fluorescence quenching experiments greatly benefit studies on the interactions between ligands and proteins. Initially, 3 mL of HSA stock solution was put into a 10 mm square quartz cuvette. Following that, PFAS stock solution was gradually added to achieve various final concentrations, namely 0, 3, 6, 9, 12, 15, 18 × 10^−6 mol·L^−1. By incrementally increasing the molar ratio of PFAS vs. HSA up to 18, their binding characteristics can be better investigated.
A thermostat (TR-01A, Bishui Corp, Beijing, China) was used to precisely control the solution temperature, which was set at 298, 304, and 310 K. This device includes a temperature controller and a metal heating cuvette module in conjunction with a fluorometer. This thermostat has a temperature range of 20–60 °C (293–333 K) and an accuracy of 0.1 °C Celsius. This step is critical for keeping the experimental conditions stable. Following that, the samples were fluorescence-scanned with a fluorometer (Cary Eclipse, Agilent, CA, USA). The excitation wavelength was set at 275 nm to efficiently stimulate tryptophan (Trp) and tyrosine (Tyr) residues. Additional test parameters include an emission of 275–500 nm, scanning rate of 1200 nm/min and PTV voltage of 700 v. Fluorescence quenching experiments were repeated three times, and the average values were taken for further calculation.
Fluorescence internal filtration (IFE) refers to the phenomenon where the fluorescence intensity decreases during fluorescence measurement due to the absorption of excitation or emission light by sample components (small molecules or proteins) in solution [19, 20]. This phenomenon is more obvious in the samples with a high concentration of adsorbent. A fluorescence correction formula was used in this study to correct the IFE effect on the data, as follows: Fcorr=Fobs×10^Aex+Aem/2 where Fcorr and Fobs are corrected and observed fluorescence emission intensities, respectively, Aex and Aem are UV-vis absorbances at the excitation and emission wavelengths.
The quenching constant can be calculated using the Stern–Volmer Equation (3). The results are shown in Table 2 and Figure 1: F0/F=1+Kqτ0=1+KsvQ where F0 and F refer to HSA fluorescence intensities without and with the quencher (PFAS solution); Kq is the biomacromolecule’s quenching rate constant; τ0 is the average fluorescence lifetime of the fluorescent molecule when the quencher PFAS is absent, usually taken as 10^−8 s; [Q] is the PFAS concentration; Ksv is the Stern–Volmer quenching constant; F0/F is the vertical axis; the Stern–Volmer curves of this system are 298, 304, and 310 K.
The double logarithmic formula can be used to calculate the binding constants and binding site numbers of HSA–PFAS complexes: logF0−F/F=logKb+nlogQ where F0 and F are parameters representing the initial fluorescence intensity and the fluorescence intensity after adding PFAS, respectively. The binding characteristics are represented by the binding constant, Kb, and the number of binding sites, n. The slope of the straight line is the number of binding sites, n, and the binding constant Kb is obtained from the exponent of the straight line’s intercept using the double logarithmic graph. Figure A2 and Table 2 show the calculation results.
The enthalpy change (∆H), entropy change (∆S), and free energy change (∆G) calculated from the Van’t Hoff equation [50] can be used to determine the type of interaction. lnKb=−ΔH/RT+ΔS/R ΔG=ΔH−TΔS=−RTlnKb where R represents the ideal gas constant (8.314 J·mol^−1·K^−1).

HSA [2] = target: T2, HSA (Homo sapiens, UniProt P02768); experiment: 3D-EEM fluorescence spectra of HSA–PFAS; conditions: for 3D-EEM Peak A Position λex/λem / 3D-EEM Peak B Position λex/λem / 3D-EEM Peak A Intensity F / 3D-EEM Peak B Intensity F: HSA 1 × 10^−6, PFAS 1.8 × 10^−5 mol·L^−1; for 3D-EEM Peak A Intensity F: HSA alone 673.66; for 3D-EEM Peak B Intensity F: HSA alone 996.906
T2 construct: HSA (≥96%) and six PFAS were all purchased from Aladdin Chemicals (Shanghai, China); purchased Aladdin Chemicals (Shanghai, China)
Procedure: The 3D-EEM spectra were recorded using specific scanning parameters at the scanning rate of 2400 nm·min^−1, an […] with 5 nm increments, and an emission of 280–550 nm with 2 nm increments. The concentrations of PFAS and HSA were set at 18 × 10^−6 mol·L^−1 and 1 × 10^−6 mol·L^−1, respectively.

HSA [3] = target: T2, HSA; experiment: Circular dichroism (CD) spectrum, secondary structure of HSA; conditions: HSA:PFAS 1:18, 298 K; for HSA secondary structure: β-Sheet: HSA alone 4.9; for HSA secondary structure: β-Turn: HSA alone 16.9; for HSA secondary structure: Random Coil: HSA alone 36.7; for HSA secondary structure: α-Helix: HSA alone 41.6
Excerpt: CD measurements (190–260 nm) were taken before and after the addition of PFAS to HSA using a J-815 CD spectrometer equipped with a PMT detector (JASCO, Tokyo, Japan). The protein concentration was set at 1 × 10^−6 mol/L, with a fixed HSA-to-PFAS concentration ratio of 1:18. The scanning rate was set to 100 nm/min with 0.5 nm increments, and the photometric mode of HT. Each sample was scanned three times. The blank buffer control was automatically subtracted during the scanning process. All tests were carried out at 298 K. The CONTIN analysis method from the DichroWeb was employed to determine the contents of the protein’s secondary structure.

HSA [4] = target: T2, HSA; experiment: Competitive probe experiment (warfarin, ibuprofen, lidocaine); assay type: binding
Excerpt: Competitive probe experiments are commonly used to identify specific binding sites in the structure of proteins. Three probe molecules known to bind to distinct binding sites on HSA were selected: warfarin (subdomain IIA), ibuprofen (subdomain IIIA), and lidocaine (subdomain IIB). These probe molecules would compete with PFAS for the same protein sites when binding with HSA. The potential binding sites can be inferred by monitoring and comparing changes in fluorescence intensity when probe molecules are present.

[5] = human body, cited from earlier work

T1 sequence (P02768 25-609): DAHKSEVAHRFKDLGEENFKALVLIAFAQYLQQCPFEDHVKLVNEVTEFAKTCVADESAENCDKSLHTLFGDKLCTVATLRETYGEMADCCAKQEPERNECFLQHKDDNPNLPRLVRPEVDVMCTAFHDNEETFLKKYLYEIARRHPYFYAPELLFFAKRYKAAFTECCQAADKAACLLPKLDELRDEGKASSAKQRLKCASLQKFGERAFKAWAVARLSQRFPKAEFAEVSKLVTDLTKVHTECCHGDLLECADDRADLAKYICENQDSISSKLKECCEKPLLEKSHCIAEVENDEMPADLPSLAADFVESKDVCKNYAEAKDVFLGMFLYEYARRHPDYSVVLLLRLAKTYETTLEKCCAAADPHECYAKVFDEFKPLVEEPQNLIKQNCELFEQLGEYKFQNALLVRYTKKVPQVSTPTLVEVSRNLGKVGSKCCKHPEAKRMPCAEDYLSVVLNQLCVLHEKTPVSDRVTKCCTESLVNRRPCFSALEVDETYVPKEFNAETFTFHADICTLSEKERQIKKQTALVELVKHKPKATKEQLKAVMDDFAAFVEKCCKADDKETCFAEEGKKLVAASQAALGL
T2 sequence (P02768 25-609): as above

| SMILES | fluorescence quenching mechanism [1] | quenching of HSA fluorescence intensity [1] | KSV (Stern–Volmer quenching constant) ([1]; T = 298 K) | n (number of binding sites) ([1]; T = 298 K) | ΔG ([1]; T = 298 K) | Kq (quenching rate constant) ([1]; T = 298 K, τ0 taken as 10^−8 s) | KSV (Stern–Volmer quenching constant) ([1]; T = 304 K) | n (number of binding sites) ([1]; T = 304 K) | ΔG ([1]; T = 304 K) | Kq (quenching rate constant) ([1]; T = 304 K, τ0 taken as 10^−8 s) | KSV (Stern–Volmer quenching constant) ([1]; T = 310 K) | n (number of binding sites) ([1]; T = 310 K) | ΔG ([1]; T = 310 K) | Kq (quenching rate constant) ([1]; T = 310 K, τ0 taken as 10^−8 s) | ΔH [1] | ΔS [1] | affinity for HSA [1] | main interaction force from thermodynamic analysis [1] | 3D-EEM Peak A Position λex/λem (HSA [2]) | 3D-EEM Peak B Position λex/λem (HSA [2]) | other results |
| --- | --- | --- | --- | --- | --- | --- | --- | --- | --- | --- | --- | --- | --- | --- | --- | --- | --- | --- | --- | --- | --- |
| O=C(O)C(F)(F)C(F)(F)C(F)(F)C(F)(F)C(F)(F)C(F)(F)C(F)(F)C(F)(F)F [PFNA, Perfluorononanoic Acid] | static quenching | 30.6% | 2.52 ± 0.10 × 10^4 L·mol^−1 | 1.51 ± 0.06 | -9.398 kcal/mol | 2.52 ± 0.10 × 10^12 L·mol^−1·s^−1 | 2.35 ± 0.11 × 10^4 L·mol^−1 | 1.18 ± 0.03 | -7.376 kcal/mol | 2.35 ± 0.11 × 10^12 L·mol^−1·s^−1 | 1.27 ± 0.04 × 10^4 L·mol^−1 | 1.10 ± 0.04 | -7.087 kcal/mol | 1.27 ± 0.04 × 10^12 L·mol^−1·s^−1 | -66.503 ± 1.3 kcal/mol | −805.8 ± 13.8 J·mol^−1·K^−1 | high affinity | hydrogen bonds or van der Waals interactions; also recorded: hydrogen bonds or van der Waals forces | 280/329 | 230/310 | HSA fluorescence peak position after PFAS addition (blue shift from 337 nm) [1]: 317 nm; 3D-EEM Peak A Intensity F (HSA [2]): 418.74 a.u.; 3D-EEM Peak B Intensity F (HSA [2]): 800.96 a.u.; reduction of 3D-EEM peak A intensity (HSA [2]; after binding with HSA): 37.8%; reduction of 3D-EEM peak B intensity (HSA [2]; after binding with HSA): 19.7%; HSA secondary structure: β-Sheet (HSA [3]): 7.6%; HSA secondary structure: β-Turn (HSA [3]): 15.1%; HSA secondary structure: Random Coil (HSA [3]): 41.2%; HSA secondary structure: α-Helix (HSA [3]): 36.2%; φ (rate of decrease in Kb) (HSA [4]; ibuprofen probe): 13.8%; φ (rate of decrease in Kb) (HSA [4]; lidocaine probe): 43.9%; φ (rate of decrease in Kb) (HSA [4]; warfarin probe): 98.3% |
| O=C(O)C(F)(F)OC(F)(F)C(F)(F)OC(F)(F)C(F)(F)OC(F)(F)F [PFO3DA, Perfluoro-3,6,9-trioxadecanoic Acid] | static quenching | 15.3% | 1.05 ± 0.06 × 10^4 L·mol^−1 | 1.25 ± 0.03 | -7.091 kcal/mol | 1.05 ± 0.06 × 10^12 L·mol^−1·s^−1 | 1.03 ± 0.06 × 10^4 L·mol^−1 | 1.33 ± 0.02 | -6.479 kcal/mol | 1.03 ± 0.06 × 10^12 L·mol^−1·s^−1 | 0.87 ± 0.04 × 10^4 L·mol^−1 | 1.10 ± 0.03 | -6.348 kcal/mol | 0.87 ± 0.04 × 10^12 L·mol^−1·s^−1 | -25.471 ± 0.937 kcal/mol | −259.2 ± 9.4 J·mol^−1·K^−1 | high affinity | hydrogen bonds or van der Waals interactions; also recorded: hydrogen bonds or van der Waals forces | 280/329 | 230/325 | 3D-EEM Peak A Intensity F (HSA [2]): 525.07 a.u.; 3D-EEM Peak B Intensity F (HSA [2]): 886.91 a.u.; HSA secondary structure: β-Sheet (HSA [3]): 5.8%; HSA secondary structure: β-Turn (HSA [3]): 17.3%; HSA secondary structure: Random Coil (HSA [3]): 40.6%; HSA secondary structure: α-Helix (HSA [3]): 36.4%; φ (rate of decrease in Kb) (HSA [4]; ibuprofen probe): 25.8%; φ (rate of decrease in Kb) (HSA [4]; lidocaine probe): 11.8%; φ (rate of decrease in Kb) (HSA [4]; warfarin probe): 95.1% |
| O=C(O)C(F)(F)C(F)(F)C(F)(F)C(F)(F)C(F)(F)C(F)(F)C(F)(F)F [PFOA, Perfluorooctanoic Acid] | mixed quenching | 20.1% | 1.39 ± 0.07 × 10^4 L·mol^−1 | 1.26 ± 0.04 | -7.302 kcal/mol | 1.39 ± 0.07 × 10^12 L·mol^−1·s^−1 | 1.46 ± 0.09 × 10^4 L·mol^−1 | 1.31 ± 0.02 | -7.851 kcal/mol | 1.46 ± 0.09 × 10^12 L·mol^−1·s^−1 | 1.47 ± 0.11 × 10^4 L·mol^−1 | 1.47 ± 0.03 | -9.003 kcal/mol | 1.47 ± 0.11 × 10^12 L·mol^−1·s^−1 | 35.057 ± 1.53 kcal/mol | 593.3 ± 22.7 J·mol^−1·K^−1 | high affinity | hydrophobic interactions | 280/336 | 230/327 | Kq (quenching rate constant) ([1]; 298 K): 1.39e+12 L/mol/s; HSA fluorescence peak position after PFAS addition (blue shift from 337 nm) [1]: 320 nm; 3D-EEM Peak A Intensity F (HSA [2]): 476.59 a.u.; 3D-EEM Peak B Intensity F (HSA [2]): 812.58 a.u.; HSA secondary structure: β-Sheet (HSA [3]): 6.4%; HSA secondary structure: β-Turn (HSA [3]): 15.8%; HSA secondary structure: Random Coil (HSA [3]): 40.5%; HSA secondary structure: α-Helix (HSA [3]): 37.2%; φ (rate of decrease in Kb) (HSA [4]; lidocaine probe): 8.1%; φ (rate of decrease in Kb) (HSA [4]; warfarin probe): 96.1%; average half-life ([5]; study on 19 PFAS): approximately 2.47 years; average half-life [5]: 3.8 years |
| O=S(=O)(O)C(F)(F)C(F)(F)C(F)(F)C(F)(F)C(F)(F)C(F)(F)C(F)(F)C(F)(F)F [PFOS, Perfluorooctanesulfonic acid] | – | – | – | – | – | – | – | – | – | – | – | – | – | – | – | – | – | – | – | – | average half-life ([5]; study on 19 PFAS): ~4.52 years; average half-life [5]: 5.4 years |
